In patent US5578445A, “In vitro method of evaluating the effects of a substance” (priority 1991, dated 1996):
Read-outs that look alike come from different tables or passages of the source.

How the values were obtained:
ZR 75-1 = test: Proliferation, amount of ATP after 6 days, ZR 75-1; format: cell-based, human; settings: for activity at 0.0001 µM: +E2 (0.1 nM), 6 days
Description: The growth is determined by measuring the amount of ATP in the cells after incubation with ligands for 6 days. […]
Samples of the cells ZR 75-1 (8000 cells/well) and MCF7 (4000 cells/well), respectively, were distributed into microtiter plates having 96 wells.
The following hormone additions were made:
The medium was replaced by fresh medium of the same composition as on day 6, and hormone additions as on day 6.
6 days after hormone addition the number of cells and their morphology were investigated. Medium from each well was poured off. To each well was added 100 μl 1% TCA (trichloro acetic acid).

MCF7 = test: Proliferation, amount of ATP after 6 days, MCF7; settings: for activity at 0.0001 µM: +E2 (0.1 nM); for effect on growth: MCF7

Compound	effect on growth (ZR 75-1; 0.1 nM E2)	activity at 0.0001 µM (ZR 75-1; Homo sapiens, ZR-75-1, 144 h, No LY 117018 added, Experiment 2, read-out: relative amount of ATP (no hormone added = 1))	activity at 0.0001 µM (ZR 75-1; Homo sapiens, ZR-75-1, 144 h, No Tam added, Experiment 1, read-out: relative amount of ATP (no hormone added = 1))	activity at 0.0001 µM (MCF7; Homo sapiens, MCF7, 144 h, read-out: relative amount of ATP (no hormone added = 1), MCF7, No LY 117018 added, 6 days, Experiment 2)	activity at 0.0001 µM (MCF7; Homo sapiens, MCF7, 144 h, read-out: relative amount of ATP (no hormone added = 1), MCF7, No Tam added, 6 days, Experiment 1)	effect on growth (MCF7; 0.1 nM E2)	effect on growth (ZR 75-1; 10^-7 M Tamoxifen alone, listed as Tamoxifen)	effect on growth (ZR 75-1; 10^-7 M Tamoxifen alone, listed as tamoxifen)	activity at 1 µM (ZR 75-1; Homo sapiens, ZR-75-1, 144 h, + 10^-6 M Tam, -E2, 6 days, read-out: relative amount of ATP (no hormone added = 1))	activity at 0.1 µM (ZR 75-1; Homo sapiens, ZR-75-1, 144 h, + 10^-7 M Tam, -E2, 6 days, read-out: relative amount of ATP (no hormone added = 1))	activity at 0.01 µM (ZR 75-1; Homo sapiens, ZR-75-1, 144 h, + 10^-8 M Tam, -E2, 6 days, read-out: relative amount of ATP (no hormone added = 1))	activity at 0.001 µM (ZR 75-1; Homo sapiens, ZR-75-1, 144 h, + 10^-9 M Tam, -E2, 6 days, read-out: relative amount of ATP (no hormone added = 1))	Tamoxifen concentration at which an antagonistic effect can be seen (ZR 75-1; presence of 0.1 nM E2)	activity at 1 µM (MCF7; Homo sapiens, MCF7, 144 h, read-out: relative amount of ATP (no hormone added = 1), MCF7, + 10^-6 M Tam, -E2, 6 days)	activity at 0.1 µM (MCF7; Homo sapiens, MCF7, 144 h, read-out: relative amount of ATP (no hormone added = 1), MCF7, + 10^-7 M Tam, -E2, 6 days)	activity at 0.01 µM (MCF7; Homo sapiens, MCF7, 144 h, read-out: relative amount of ATP (no hormone added = 1), MCF7, + 10^-8 M Tam, -E2, 6 days)	activity at 0.001 µM (MCF7; Homo sapiens, MCF7, 144 h, read-out: relative amount of ATP (no hormone added = 1), MCF7, + 10^-9 M Tam, -E2, 6 days)	effect on growth (MCF7; Tamoxifen alone)
C[C@]12CC[C@@H]3c4ccc(O)cc4CC[C@H]3[C@@H]1CC[C@@H]2O [E2, estradiol]	increase their growth dramatically	468%	351%	230%	266%	increase their growth dramatically	–	–	–	–	–	–	–	–	–	–	–	–
CC/C(=C(\c1ccccc1)c1ccc(OCCN(C)C)cc1)c1ccccc1 [Tam, tamoxifen]	–	–	–	–	–	–	functions as a weak agonist	weak agonistic effect	131%	155%	109%	91%	10^-6 M	94%	109%	122%	96%	has no effect
